# What was measured:
# [1] = target: T1, bovine cardiac myofibrils (BcMF) (Bos taurus, UniProt Q9BE39); assay: Single mant-ATP turnover kinetics in BcMF; type: biochemical
# [2] = target: T2, myosin in bovine cardiac synthetic thick filaments (BcSTF) (Bos taurus, UniProt Q9BE39); assay: Single mant-ATP turnover kinetics in BcSTF; type: biochemical
# myosin = assay: Blebbistatin binding to myosin in the presence of mavacamten; details: Fig. S2
# [3] = target: T3, human β-cardiac 25-hep HMM (Homo sapiens, UniProt P12883); assay: Small-angle X-ray scattering; details: at 20 μM mavacamten and 50 μM para-nitroblebbistatin
# [4] = target: T2, myosin in bovine cardiac synthetic thick filaments (BcSTF); assay: Basal myosin ATPase activity; type: biochemical; details: read-out: Basal ATPase (BcSTF) IC50, 1 μM myosin, 23°C
# [5] = target: T1, bovine cardiac myofibrils (BcMF); assay: Myofibrillar ATPase activity at pCa 6; type: biochemical; details: read-out: Myofibrillar ATPase (BcMF) IC50, pCa 6, 23°C
# [6] = target: T3, human β-cardiac 25-hep HMM; assay: SEC-MALS-DLS light scattering of 25-hep HMM; details: at 20 μM mavacamten and 50 μM para-nitroblebbistatin
# T2 sequence (Q9BE39 whole entry): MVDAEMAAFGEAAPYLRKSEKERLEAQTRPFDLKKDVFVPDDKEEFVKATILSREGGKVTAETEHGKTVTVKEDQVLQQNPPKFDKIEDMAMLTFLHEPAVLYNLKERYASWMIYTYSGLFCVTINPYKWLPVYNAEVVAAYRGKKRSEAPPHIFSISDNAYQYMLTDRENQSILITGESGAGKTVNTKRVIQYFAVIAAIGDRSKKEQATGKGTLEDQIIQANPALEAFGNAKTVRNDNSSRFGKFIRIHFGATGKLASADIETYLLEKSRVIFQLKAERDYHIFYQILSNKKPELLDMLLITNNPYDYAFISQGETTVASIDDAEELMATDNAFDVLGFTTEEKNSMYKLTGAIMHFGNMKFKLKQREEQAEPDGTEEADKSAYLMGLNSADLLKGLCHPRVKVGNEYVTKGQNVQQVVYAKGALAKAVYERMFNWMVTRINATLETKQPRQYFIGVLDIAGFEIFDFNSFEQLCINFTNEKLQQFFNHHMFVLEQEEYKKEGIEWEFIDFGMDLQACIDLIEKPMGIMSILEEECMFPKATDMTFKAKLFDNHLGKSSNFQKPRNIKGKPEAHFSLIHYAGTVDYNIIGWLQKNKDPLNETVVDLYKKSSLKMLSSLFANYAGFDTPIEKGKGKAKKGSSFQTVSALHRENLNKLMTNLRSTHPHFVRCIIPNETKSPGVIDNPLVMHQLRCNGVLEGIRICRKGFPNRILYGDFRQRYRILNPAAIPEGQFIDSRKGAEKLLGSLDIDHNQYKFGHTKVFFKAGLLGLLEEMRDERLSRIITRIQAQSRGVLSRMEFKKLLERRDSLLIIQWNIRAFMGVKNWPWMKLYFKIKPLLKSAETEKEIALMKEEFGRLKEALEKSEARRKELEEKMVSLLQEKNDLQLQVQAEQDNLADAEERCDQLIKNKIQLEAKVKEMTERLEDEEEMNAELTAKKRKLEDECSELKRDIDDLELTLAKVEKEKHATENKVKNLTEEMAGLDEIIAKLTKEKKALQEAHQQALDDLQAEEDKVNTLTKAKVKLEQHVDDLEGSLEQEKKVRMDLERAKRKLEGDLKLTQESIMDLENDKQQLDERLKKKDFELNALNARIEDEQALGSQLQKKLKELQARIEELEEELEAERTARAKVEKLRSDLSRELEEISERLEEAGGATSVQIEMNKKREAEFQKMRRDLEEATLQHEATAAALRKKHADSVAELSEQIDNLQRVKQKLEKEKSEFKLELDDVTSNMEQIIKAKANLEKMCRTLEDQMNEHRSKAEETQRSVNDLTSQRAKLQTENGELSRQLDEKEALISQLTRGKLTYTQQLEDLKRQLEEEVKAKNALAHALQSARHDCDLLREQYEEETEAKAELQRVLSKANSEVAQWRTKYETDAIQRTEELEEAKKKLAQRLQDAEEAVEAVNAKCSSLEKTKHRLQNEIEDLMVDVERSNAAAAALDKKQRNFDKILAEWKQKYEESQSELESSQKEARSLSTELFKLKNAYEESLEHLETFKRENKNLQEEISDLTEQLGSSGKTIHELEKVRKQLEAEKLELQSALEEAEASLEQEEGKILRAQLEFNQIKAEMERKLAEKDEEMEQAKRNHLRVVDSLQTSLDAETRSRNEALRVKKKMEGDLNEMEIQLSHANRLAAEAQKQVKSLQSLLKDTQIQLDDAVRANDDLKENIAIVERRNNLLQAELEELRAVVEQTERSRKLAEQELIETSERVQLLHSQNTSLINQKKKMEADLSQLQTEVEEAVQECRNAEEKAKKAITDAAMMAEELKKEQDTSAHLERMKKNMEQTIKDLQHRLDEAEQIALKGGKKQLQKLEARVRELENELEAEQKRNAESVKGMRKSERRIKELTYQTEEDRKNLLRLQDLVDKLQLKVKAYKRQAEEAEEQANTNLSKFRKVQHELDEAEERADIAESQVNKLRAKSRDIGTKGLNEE
# T2 sequence (P85100 whole entry partner): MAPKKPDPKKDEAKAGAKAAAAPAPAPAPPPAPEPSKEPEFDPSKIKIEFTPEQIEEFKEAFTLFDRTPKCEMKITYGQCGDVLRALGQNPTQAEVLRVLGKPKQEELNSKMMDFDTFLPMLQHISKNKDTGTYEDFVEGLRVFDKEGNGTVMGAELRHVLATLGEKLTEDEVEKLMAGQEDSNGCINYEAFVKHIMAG
# T2 sequence (Q3SZE5 whole entry partner): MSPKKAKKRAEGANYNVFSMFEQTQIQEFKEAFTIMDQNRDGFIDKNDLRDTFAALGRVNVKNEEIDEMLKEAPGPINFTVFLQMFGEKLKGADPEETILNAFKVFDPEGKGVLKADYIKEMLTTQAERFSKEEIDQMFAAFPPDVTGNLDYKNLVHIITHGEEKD
# T1 sequence (Q9BE39 whole entry): as the sequence (Q9BE39 whole entry) above
# T1 sequence (P85100 whole entry partner): as the sequence (P85100 whole entry partner) above
# T1 sequence (Q3SZE5 whole entry partner): as the sequence (Q3SZE5 whole entry partner) above
compound,measurement,setting,value
"CC(C)n1c(=O)cc(N[C@@H](C)c2ccccc2)[nH]c1=O [Mavacamten, mavacamten]",magnitude of myosin SRX population,[1]; saturating concentrations,~ 65%
same,Hill coefficient,"[2]; DRX to SRX shift, up to 3.125 μM",2–4
same,magnitude of myosin SRX population,[2]; saturating concentrations,~ 100%
Cc1ccc2c(c1)C(=O)C1(O)CCN(c3ccccc3)C1=N2 (centres unmarked) [blebbistatin],binding of blebbistatin in the presence of mavacamten,myosin,not compromised
"Cc1ccc2c(c1)C(=O)[C@]1(O)CCN(c3ccc([N+](=O)[O-])cc3)C1=N2 [Para-nitroblebbistatin, para-nitroblebbistatin]","I(0), Guinier Analysis",[3],0.04 ± 0.01 cm⁻¹
same,"I(0), P(r) Analysis",[3],0.04 ± 0 cm⁻¹
same,"Porod volume, P(r) Analysis",[3],1.42e6 Å^−3
same,"Rg, Guinier Analysis",[3],102.5±1.5 Å
same,"Rg, P(r) Analysis",[3],124±10 Å
same,reduction of Rg (Guinier) compared to untreated 25-hep HMM,[3],14%
same,reduction of Rg (P(r) analysis) compared to untreated 25-hep HMM,[3],11%
same,IC50,[4],2.37 ± 0.12 µM
same,IC50,[5],4.05 ± 0.34 µM
same,IC50,"[1]; read-out: DRX ATPase Rate, kfast (BcMF), half-maximal decrease",> 12.5 µM
same,EC50,"[1]; read-out: SRX Amplitude, Aslow (BcMF), half-maximal increase",> 12.5 µM
same,lifetime of mant-nucleotides for compound-bound myosin,[2]; experiment duration 2400 s,> 2400 s
same,IC50,"[2]; read-out: DRX ATPase Rate, kfast (BcSTF), half-maximal decrease, 0μM blebbistatin",> 12.5 µM
same,EC50,"[2]; read-out: SRX Amplitude, Aslow (BcSTF), half-maximal increase, 0μM blebbistatin",> 12.5 µM
same,Hydrodynamic radius of 25-hep HMM (DLS),[6],84.1±2.2 Å
same,Molecular Mass of 25-hep HMM (MALS),[6],363±14 kDa
